This note sets out measurements from ChEMBL document CHEMBL4334536, “PROTAC-Mediated Degradation of KRAS Protein for Anticancer Therapeutics” (ACS Med Chem Lett, 2020).

What all share (format): cell-based
In assay [1] the test system is NCI-H2030 [G12C]. Kind of assay: Protac activity at E3 ubiquitin ligase/KRAS G12C mutant in human NCI-H2030 cells assessed as maximal KRAS degradation at 0.3 uM after 24 hrs by Western blot analysis relative to control. On the technique in general: In western blotting, separated proteins are transferred to a membrane and probed.
Chain of NCI-H2030 [G12C] (as listed by the source, stated change not applied): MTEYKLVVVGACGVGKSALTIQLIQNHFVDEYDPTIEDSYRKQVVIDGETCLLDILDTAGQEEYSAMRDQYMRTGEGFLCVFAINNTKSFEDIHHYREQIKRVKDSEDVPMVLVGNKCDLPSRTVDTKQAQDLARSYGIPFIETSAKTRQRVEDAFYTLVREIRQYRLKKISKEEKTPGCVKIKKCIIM
For assay [2], the system named is NCI-H2030 [G12C]. Kind of assay: Protac activity at E3 ubiquitin ligase/KRAS G12C mutant in human NCI-H2030 cells assessed as maximal KRAS degradation at 1 uM after 24 hrs by Western blot analysis relative to control.
Assay [3] has as its system NCI-H2030 [G12C]. Kind of assay: Protac activity at E3 ubiquitin ligase/KRAS G12C mutant in human NCI-H2030 cells assessed as maximal KRAS degradation at 3 uM after 24 hrs by Western blot analysis relative to control.

SMILES strings stand for the structures. A value given as a limit tells only on which side of the number the result lay.

One may read the Emax as the maximal effect, on the per cent scale that the assay sets. Take `C=CC(=O)N1CCN(c2nc(NCCC(=O)N(C)CCOCCOCCOCC(=O)N[C@H](C(=O)N3C[C@H](O)C[C@H]3C(=O)N[C@@H](C)c3ccc(-c4scnc4C)cc3)C(C)(C)C)nc3c(F)c(-c4cc(O)cc5ccccc45)c(Cl)cc23)CC1`: the results for the Emax in the assay with NCI-H2030 [G12C] [1], with NCI-H2030 [G12C] [2] and with NCI-H2030 [G12C] [3] were less than 25%, 25 to 50% and 25 to 50%, respectively.
In the case of `C=CC(=O)N1CCN(c2nc(NCCC(=O)N(C)CCOCCOCCOCCOCCOCC(=O)N[C@H](C(=O)N3C[C@H](O)C[C@H]3C(=O)N[C@@H](C)c3ccc(-c4scnc4C)cc3)C(C)(C)C)nc3c(F)c(-c4cc(O)cc5ccccc45)c(Cl)cc23)CC1`, the Emax in the assay on NCI-H2030 [G12C] [1] is less than 25%; in the assay on NCI-H2030 [G12C] [2] it was more than 50%; in the assay on NCI-H2030 [G12C] [3] it was more than 50%.
For `CCC(=O)N1CCN(c2nc(NCCC(=O)N(C)CCOCCOCCOCCOCCOc3ccc4c(c3)CN(C3CCC(=O)NC3=O)C4=O)nc3c(F)c(-c4cc(O)cc5ccccc45)c(Cl)cc23)CC1` (stereo not drawn), the figures for the Emax with NCI-H2030 [G12C] [1], in the assay on NCI-H2030 [G12C] [2] and in the assay with NCI-H2030 [G12C] [3] were less than 25%, 25 to 50% and 25 to 50%, respectively.
For `CCC(=O)N1CCN(c2nc(NCCC(=O)N(C)CCOCCOCCOCCOCC(=O)N[C@H](C(=O)N3C[C@H](O)C[C@H]3C(=O)N[C@@H](C)c3ccc(-c4scnc4C)cc3)C(C)(C)C)nc3c(F)c(-c4cc(O)cc5ccccc45)c(Cl)cc23)CC1`, the maximal effect (Emax) in the assay with NCI-H2030 [G12C] [1], with NCI-H2030 [G12C] [2] and in the assay with NCI-H2030 [G12C] [3] was less than 25% throughout.
For `C=CC(=O)N1CCN(c2nc(NCCC(=O)N(C)CCOCCOCCOCCNc3cccc4c3C(=O)N(C3CCC(=O)NC3=O)C4=O)nc3c(F)c(-c4cc(O)cc5ccccc45)c(Cl)cc23)CC1` (stereo not drawn), the Emax in the assay on NCI-H2030 [G12C] [1] was less than 25%; in the assay with NCI-H2030 [G12C] [2], 25 to 50%; with NCI-H2030 [G12C] [3], 25 to 50%.
As for `C=CC(=O)N1CCN(c2nc(NCCC(=O)N(C)CCOCCOCCOCCOCC(=O)N[C@H](C(=O)N3C[C@H](O)C[C@H]3C(=O)N[C@@H](C)c3ccc(-c4scnc4C)cc3)C(C)(C)C)nc3c(F)c(-c4cc(O)cc5ccccc45)c(Cl)cc23)CC1`, the Emax is less than 25% in the assay with NCI-H2030 [G12C] [1], more than 50% in the assay on NCI-H2030 [G12C] [2] and more than 50% with NCI-H2030 [G12C] [3].
